Measured values: PMC11409674, “Raffinocyclicin is a novel plasmid-encoded circular bacteriocin produced by Lactococcus raffinolactis with broad-spectrum activity against many gram-positive food pathogens” (Applied and environmental microbiology, 2024)
“Also recorded” adds a separate entry of the source.

How the values were obtained:
proteases = test system: proteases; design: method as in 4 sources, ref 33 = [33]; PMID 21948835; doi:10.1128/AEM.06348-11; 33 Masuda Y Ono H Kitagawa H Ito H Mu F Sawa N Zendo T Sonomoto K Identification and characterization of leucocyclicin Q, a novel cyclic bacteriocin produced by Leuconostoc mesenteroides TK41401 Appl ||| ref 27 = [27]; PMID 21057028; doi:10.1128/AEM.01173-10; 27 Borrero J Brede DA Skaugen M Diep DB Herranz C Nes IF Cintas LM Hernández PE Characterization of garvicin ML, a novel circular bacteriocin produced by Lactococcus garvieae DCC43, isolated from mall ||| ref 30 = [30]; PMID 29177092; doi:10.1099/mgen.0.000134; 30 van Heel AJ Montalban-Lopez M Oliveau Q Kuipers OP Genome-guided identification of novel head-to-tail cyclized antimicrobial peptides, exemplified by the discovery of pumilarin Microb Genom 2017 3 ||| ref 29 = [29]; PMID 18552180; doi:10.1128/AEM.00817-08; 29 Martin-Visscher LA van Belkum MJ Garneau-Tsodikova S Whittal RM Zheng J McMullen LM Vederas JC Isolation and characterization of carnocyclin A, a novel circular bacteriocin produced by Carnobacteri; conditions: cited from earlier work
[1] = test system: Lactobacillus delbrueckii subsp. bulgaricus LMG 6901; assay: spot-on-lawn assay; format: cell-based; conditions: producer spot on M17, chloroform-inactivated, overlay ~7.0 log CFU/mL indicator; 37 °C, Anaerobic, MRS; true halo, triplicate
[2] = test system: Clostridium perfringens EM124; format: cell-based; conditions: producer spot on M17, chloroform-inactivated, overlay ~7.0 log CFU/mL indicator; 37 °C, Anaerobic, RCM; true halo, triplicate
E. faecium DPC 3675 = assay: spot-on-lawn assay; format: cell-based, Enterococcus faecium; conditions: producer spot on M17, chloroform-inactivated, overlay ~7.0 log CFU/mL indicator; 37 °C, Aerobic, BHI; true halo, triplicate
VRE APC 1028 = assay: spot-on-lawn assay; format: cell-based, vancomycin-resistant enterococci; conditions: producer spot on M17, chloroform-inactivated, overlay ~7.0 log CFU/mL indicator; 37 °C, Aerobic, BHI; true halo, triplicate
S. aureus B2M = assay: spot-on-lawn assay; format: cell-based, Staphylococcus aureus; conditions: producer spot on M17, chloroform-inactivated, overlay ~7.0 log CFU/mL indicator; 37 °C, Aerobic, BHI; true halo, triplicate
VRE APC 1029 = assay: spot-on-lawn assay; format: cell-based, vancomycin-resistant enterococci; conditions: producer spot on M17, chloroform-inactivated, overlay ~7.0 log CFU/mL indicator; 37 °C, Aerobic, BHI; true halo, triplicate
L. lactis ATCC 11454 = assay: spot-on-lawn assay; format: cell-based, Lactococcus lactis; conditions: producer spot on M17, chloroform-inactivated, overlay ~7.0 log CFU/mL indicator; 30 °C, Aerobic, GM17; true halo, triplicate
[3] = test system: Enterococcus faecalis ATCC 29200; assay: spot-on-lawn assay; format: cell-based; conditions: producer spot on M17, chloroform-inactivated, overlay ~7.0 log CFU/mL indicator; 37 °C, Aerobic, BHI; true halo, triplicate
[4] = test system: Leuconostoc mesenteroides KH 24; assay: spot-on-lawn assay; format: cell-based; conditions: producer spot on M17, chloroform-inactivated, overlay ~7.0 log CFU/mL indicator; 30 °C, Aerobic, MRS; true halo, triplicate
[5] = test system: Klebsiella pneumoniae C02.b; assay: spot-on-lawn assay; format: cell-based; design: key: –: no activity; +: 0.5–5 mm inhibition zone; ++: >5–≤10 mm inhibition zone; +++: >10 mm inhibition zone; conditions: producer spot on M17, chloroform-inactivated, overlay ~7.0 log CFU/mL indicator; 37 °C, Aerobic, BHI; true halo, triplicate
[6] = test system: Staphylococcus capitis APC 2923; assay: spot-on-lawn assay; format: cell-based; design: key: –: no activity; +: 0.5–5 mm inhibition zone; ++: >5–≤10 mm inhibition zone; +++: >10 mm inhibition zone; conditions: producer spot on M17, chloroform-inactivated, overlay ~7.0 log CFU/mL indicator; 37 °C, Aerobic, BHI; true halo, triplicate
E. faecium DPC 5152 = assay: spot-on-lawn assay; format: cell-based, Enterococcus faecium; conditions: producer spot on M17, chloroform-inactivated, overlay ~7.0 log CFU/mL indicator; 37 °C, Aerobic, BHI; true halo, triplicate
VRE APC 1027 = assay: spot-on-lawn assay; format: cell-based, vancomycin-resistant enterococci; conditions: producer spot on M17, chloroform-inactivated, overlay ~7.0 log CFU/mL indicator; 37 °C, Aerobic, BHI; true halo, triplicate
Lactococcus lactis HP = assay: spot-on-lawn assay; format: cell-based; conditions: producer spot on M17, chloroform-inactivated, overlay ~7.0 log CFU/mL indicator; 30 °C, Aerobic, GM17; true halo, triplicate
[7] = test system: Micrococcus luteus APC 4061; assay: spot-on-lawn assay; format: cell-based; conditions: producer spot on M17, chloroform-inactivated, overlay ~7.0 log CFU/mL indicator; 37 °C, Aerobic, BHI; true halo, triplicate
E. faecalis V583 = assay: spot-on-lawn assay; format: cell-based, Enterococcus faecalis; conditions: producer spot on M17, chloroform-inactivated, overlay ~7.0 log CFU/mL indicator; 37 °C, Aerobic, BHI; true halo, triplicate
[8] = test system: Listeria monocytogenes EDGe; assay: spot-on-lawn assay; format: cell-based; conditions: producer spot on M17, chloroform-inactivated, overlay ~7.0 log CFU/mL indicator; 37 °C, Aerobic, BHI; true halo, triplicate
[9] = test system: Staphylococcus aureus DPC 5645; assay: spot-on-lawn assay; format: cell-based; design: key: –: no activity; +: 0.5–5 mm inhibition zone; ++: >5–≤10 mm inhibition zone; +++: >10 mm inhibition zone; conditions: producer spot on M17, chloroform-inactivated, overlay ~7.0 log CFU/mL indicator; 37 °C, Aerobic, BHI; true halo, triplicate
Listeria innocua UCC = assay: spot-on-lawn assay; format: cell-based; conditions: producer spot on M17, chloroform-inactivated, overlay ~7.0 log CFU/mL indicator; 37 °C, Aerobic, BHI; true halo, triplicate
S. agalactiae 119 = assay: spot-on-lawn assay; format: cell-based, Streptococcus agalactiae; conditions: producer spot on M17, chloroform-inactivated, overlay ~7.0 log CFU/mL indicator; 37 °C, Aerobic, TSA; true halo, triplicate
Bacilllus cereus KH 1453 = assay: spot-on-lawn assay; format: cell-based; design: key: –: no activity; +: 0.5–5 mm inhibition zone; ++: >5–≤10 mm inhibition zone; +++: >10 mm inhibition zone; conditions: producer spot on M17, chloroform-inactivated, overlay ~7.0 log CFU/mL indicator; 37 °C, Aerobic, BHI; true halo, triplicate
E. faecium DSM 26544 = assay: spot-on-lawn assay; format: cell-based, Enterococcus faecium; conditions: producer spot on M17, chloroform-inactivated, overlay ~7.0 log CFU/mL indicator; 37 °C, Aerobic, BHI; true halo, triplicate
[10] = test system: Staphylococcus pseudointermedius DK 279; assay: spot-on-lawn assay; format: cell-based; design: key: –: no activity; +: 0.5–5 mm inhibition zone; ++: >5–≤10 mm inhibition zone; +++: >10 mm inhibition zone; conditions: producer spot on M17, chloroform-inactivated, overlay ~7.0 log CFU/mL indicator; 37 °C, Aerobic, BHI; true halo, triplicate
VRE APC 1026 = assay: spot-on-lawn assay; format: cell-based, vancomycin-resistant enterococci; conditions: producer spot on M17, chloroform-inactivated, overlay ~7.0 log CFU/mL indicator; 37 °C, Aerobic, BHI; true halo, triplicate
[11] = test system: Enterococcus faecium NCD 0942; assay: spot-on-lawn assay; format: cell-based; conditions: producer spot on M17, chloroform-inactivated, overlay ~7.0 log CFU/mL indicator; 37 °C, Aerobic, BHI; true halo, triplicate
[12] = test system: Staphylococcus epidermidis DSM 3095; assay: spot-on-lawn assay; format: cell-based; conditions: producer spot on M17, chloroform-inactivated, overlay ~7.0 log CFU/mL indicator; 37 °C, Aerobic, BHI; true halo, triplicate
[13] = residual antimicrobial activity after NaOH treatment; format: physicochemical; conditions: NaOH 0.2 M, 37 °C, 4 h
Description: The effects of proteinase K (1 mg/mL; Sigma-Aldrich, St Louis, USA), trypsin (1 mg/mL; Merck KgaA, Darmstad, DE), and 0.2 M NaOH on antimicrobial activity were evaluated on agar plates by the methods described previously ([42]). Briefly, 5 µL of an overnight growth suspension of the strain L. raffinolactis APC 3967 was spotted four times on a plate and incubated at optimal conditions. Afterward, the cells were inactivated by chloroform, and 40 µL of the corresponding treatment (protease or NaOH 0.2 M) was spotted around the producer strain. The control was treated with 10 mM PBS, pH 7.4. The plate was incubated at 37°C for 4 h to favor protease activity. The plate was then overlaid with L. lactis HP and incubated at 30°C for 24 h. Results were interpreted by measuring the true halo of the sample, and the following equation calculated the final values of the residual activity: (true halo of treated condition/true halo of the control) × 100 = residual activity (%).

[14] = test system: Pseudomonas aeruginosa PA-01; assay: spot-on-lawn assay; format: cell-based; design: key: –: no activity; +: 0.5–5 mm inhibition zone; ++: >5–≤10 mm inhibition zone; +++: >10 mm inhibition zone; conditions: producer spot on M17, chloroform-inactivated, overlay ~7.0 log CFU/mL indicator; 37 °C, Aerobic, BHI; true halo, triplicate
Escherichia sp. UCC = assay: spot-on-lawn assay; format: cell-based; design: key to Activity (inhibition zone): –: no activity; +: 0.5–5 mm inhibition zone; ++: >5–≤10 mm inhibition zone; +++: >10 mm inhibition zone
Description: The antimicrobial activity of the strain L. raffinolactis APC 3967 was evaluated on M17 medium by the agar-spot test as described by Giambiagi-deMarval et al. ([42]) with minor modifications ([42]). Briefly, 5 µL of an overnight growth suspension of the producer strain was spotted on the surface of the agar plate and incubated overnight at 30°C. Cells were inactivated by chloroform and overlaid with 3 mL soft agar (0.75% wt/vol) containing the target strain (~7.0 log CFU/mL), and these plates were incubated overnight. The growth conditions of every target strain used in this assay are outlined in Table 1. The interpretation of inhibition was performed by measuring the true halo of the inhibitory zone (total halo – spot size = true halo) and was classified into one of four groups: (i) no inhibition (0 mm); (ii) weak inhibition (0.5–5 mm); (iii) moderate inhibition (>5–≤10 mm); and (iv) strong inhibition (>10 mm). These assays were performed in triplicate.

[15] = test system: Streptococcus agalactiae 35; assay: spot-on-lawn assay; format: cell-based; conditions: producer spot on M17, chloroform-inactivated, overlay ~7.0 log CFU/mL indicator; 37 °C, Aerobic, TSA; true halo, triplicate
S. aureus C5M = assay: spot-on-lawn assay; format: cell-based, Staphylococcus aureus; design: key: –: no activity; +: 0.5–5 mm inhibition zone; ++: >5–≤10 mm inhibition zone; +++: >10 mm inhibition zone; conditions: producer spot on M17, chloroform-inactivated, overlay ~7.0 log CFU/mL indicator; 37 °C, Aerobic, BHI; true halo, triplicate

garvicin ML
sensitivity to proteolytic activity (proteases): resistant

lactocyclicin Q
sensitivity to proteolytic activity (proteases): resistant

raffinocyclicin
Activity (inhibition zone) [1]: + (0.5–5 mm inhibition zone)
Activity (inhibition zone) [2]: +++ (>10 mm inhibition zone)
Activity (inhibition zone) (E. faecium DPC 3675): ++ (>5–≤10 mm inhibition zone)
Activity (inhibition zone) (VRE APC 1028): ++ (>5–≤10 mm inhibition zone)
Activity (inhibition zone) (S. aureus B2M): + (0.5–5 mm inhibition zone)
Activity (inhibition zone) (VRE APC 1029): ++ (>5–≤10 mm inhibition zone)
Activity (inhibition zone) (L. lactis ATCC 11454): +++ (>10 mm inhibition zone)
Activity (inhibition zone) [3]: ++ (>5–≤10 mm inhibition zone)
Activity (inhibition zone) [4]: + (0.5–5 mm inhibition zone)
Activity (inhibition zone) [5]: –
Activity (inhibition zone) [6]: –
Activity (inhibition zone) (E. faecium DPC 5152): + (0.5–5 mm inhibition zone)
Activity (inhibition zone) (VRE APC 1027): ++ (>5–≤10 mm inhibition zone)
Activity (inhibition zone) (Lactococcus lactis HP): +++ (>10 mm inhibition zone)
Activity (inhibition zone) [7]: ++ (>5–≤10 mm inhibition zone)
Activity (inhibition zone) (E. faecalis V583): + (0.5–5 mm inhibition zone)
Activity (inhibition zone) [8]: + (0.5–5 mm inhibition zone)
Activity (inhibition zone) [9]: –
Activity (inhibition zone) (Listeria innocua UCC): ++ (>5–≤10 mm inhibition zone)
Activity (inhibition zone) (S. agalactiae 119): ++ (>5–≤10 mm inhibition zone)
Activity (inhibition zone) (Bacilllus cereus KH 1453): –
Activity (inhibition zone) (E. faecium DSM 26544): + (0.5–5 mm inhibition zone)
Activity (inhibition zone) [10]: –
Activity (inhibition zone) (VRE APC 1026): ++ (>5–≤10 mm inhibition zone)
Activity (inhibition zone) [11]: ++ (>5–≤10 mm inhibition zone)
Activity (inhibition zone) [12]: + (0.5–5 mm inhibition zone)
antimicrobial activity after NaOH treatment, in words ([13]; indicator L. lactis HP): resistant; also recorded: remained unchanged
Phenotype ([13]; 40 µL spotted around chloroform-inactivated producer spot, overlay L. lactis HP, 30 °C, 24 h): R
Residual activity ([13]; 40 µL spotted around chloroform-inactivated producer spot, overlay L. lactis HP, 30 °C, 24 h, true halo treated/control (10 mM PBS pH 7.4) × 100): 100%
Activity (inhibition zone) [14]: –
Activity (inhibition zone) (Escherichia sp. UCC; producer spot on M17, chloroform-inactivated, overlay ~7.0 log CFU/mL indicator, 37 °C, Aerobic, BHI, true halo, triplicate): –
inhibition in the spot-on-lawn assay, in words (Escherichia sp. UCC; spot-on-lawn assay, producer L. raffinolactis APC 3967): No inhibition
Activity (inhibition zone) [15]: ++ (>5–≤10 mm inhibition zone)
Activity (inhibition zone) (S. aureus C5M): –
